Results taken from patent publication US20140107109A1, “AMINO-DIHYDROTHIAZINE AND AMINO-DIOXIDO DIHYDROTHIAZINE COMPOUNDS AS BETA-SECRETASE ANTAGONISTS AND METHODS OF USE” (Amgen Inc., priority 2012, published 2014).
Where two headings read alike, the source gives them in different places. Each block holds one molecule with its values, some of them ahead of it.

Experiments:
[1] = system: Aβ40 in conditioned medium of cells stably expressing Amyloid Precursor Protein (APP); test: In vitro BACE cell-based assay (HEK cell assay), Aβ40 sandwich ELISA; details: Homo sapiens, HEK293
Experimental: In Vitro BACE Cell-Based Assay
The cell-based assay measures inhibition or reduction of Aβ40 in conditioned medium of test compound treated cells expressing amyloid precursor protein.
Cells stably expressing Amyloid Precursor Protein (APP) were plated at a density of 40K cells/well in 96 well plates (Costar). The cells were cultivated for 24 hours at 37C. and 5% CO2 in DMEM supplemented with 10% FBS. The test compounds were then added to cells in 10-point dose response concentrations with the starting concentration being either 100 μM or 10 μM. The compounds were diluted from stock solutions in DMSO and the final DMSO concentration of the test compounds on cells was 0.1%. After 24 h of incubation with the test compounds the supernatant conditioned media was collected and the Aβ 40 levels were determined using a sandwich ELISA. The IC50 of the compound was calculated from the percent of control or percent inhibition of Aβ 40 as a function of the concentration of the test compound.
The sandwich ELISA to detect Aβ 40 was performed in 96 well microtiter plates, which were pre-treated with goat anti-rabbit IgG (Pierce). The capture and detecting antibody pair that were used to detect Aβ 40 from cell supernatants were affinity purified pAb40 (Biosource) and biotinylated 6E10 (Signet Labs Inc.), respectively. The optimal concentration for the pAb40 antibody was 3 μg/ml in Superblock/TBS (Pierce) that was supplemented with 0.05% Tween 20 (Sigma). Optimal concentration for the detection antibody 6E10-biotinylated was 0.5 μg/ml in Superblock/TBS (Pierce) that had been supplemented with 2% normal goat serum and 2% normal mouse serum.
Cellular supernatants were incubated with the capture antibody for 3 h at 4° C., followed by 3 wash steps in TBS-tween (0.05%). The detecting antibody incubation was for 2 h at 4° C., again followed by the wash steps as described previously. The final readout of the ELISA is Time-Resolved Fluorescence (counts per minute) using Delfia reagents Streptavidin-Europium and Enhancement solutions (Perkin Elmer) and the Victor 2 multilabel counter (Perkin Elmer).

Cathepsin D (Cat D) = target: T1, Cathepsin D (Cat D) (Homo sapiens, UniProt P07339); test: In vitro enzymatic Cathepsin D (Cat D) FRET assay; assay type: biochemical; details: read-out: CatD IC50
T1 construct: Recombinant Cat D was expressed in CHO cells; made in house; host or cells: CHO cells
T1 sequence (P07339 65-412, species assumed): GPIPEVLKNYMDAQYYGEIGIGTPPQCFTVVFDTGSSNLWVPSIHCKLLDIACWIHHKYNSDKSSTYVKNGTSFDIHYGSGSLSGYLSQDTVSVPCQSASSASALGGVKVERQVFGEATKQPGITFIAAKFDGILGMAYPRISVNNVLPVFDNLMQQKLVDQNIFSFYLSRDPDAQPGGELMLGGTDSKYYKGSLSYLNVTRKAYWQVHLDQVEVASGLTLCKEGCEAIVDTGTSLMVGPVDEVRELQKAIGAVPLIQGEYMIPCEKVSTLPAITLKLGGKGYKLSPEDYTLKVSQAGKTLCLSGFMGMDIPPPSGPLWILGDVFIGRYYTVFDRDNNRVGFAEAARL
Experimental: In Vitro Enzymatic Cathepsin D (Cat D) FRET (Fluorescence Resonance Energy Transfer) Assay Recombinant Cat D was expressed in CHO cells. […] The Cat D enzyme (9 nM) is pre-incubated for one hour with inhibitors, typically in about 1 uL of DMSO according to a serial dilution, is added thereto. […] The FRET assay is terminated with by addition of Tris buffer, which raises the pH to neutrality, and the fluorescence is determined. The FRET substrate is a peptide with commercially available fluorophore and quencher, on opposite sides of the BACE cleavage site. The Cat D substrate peptide sequence is based on sequence #1 of Table 1 from Gulnik et al. […] Alternatively, a Cat D assay may also be run according to the procedure described in the article, Characterization of new fluorgenic substrates for the rapid and sensitive assay of cathepsin E and cathepsin D, J. Biochem., 125:1137, 1999. In addition, the cathepsin D and cathepsin E assays are described in PCT publication WO2011069934. This WIPO publication describes BACE inhibitor compounds having an amide linker connecting two aromatic groups with extremely poor cathepsin D and/or cathepsin E inhibitory activity (see Table 2). Where available, the in-vitro Cat D FRET assay data for each of the Examples, conducted by the first procedure, is provided.

[2] = target: Beta Secretase enzyme (BACE1) (Homo sapiens, UniProt P56817); test: In vitro enzymatic BACE FRET assay; assay type: biochemical; details: read-out: BACE1 FRET assay IC50
Sequence of Beta Secretase enzyme (BACE1) (P56817 46-501): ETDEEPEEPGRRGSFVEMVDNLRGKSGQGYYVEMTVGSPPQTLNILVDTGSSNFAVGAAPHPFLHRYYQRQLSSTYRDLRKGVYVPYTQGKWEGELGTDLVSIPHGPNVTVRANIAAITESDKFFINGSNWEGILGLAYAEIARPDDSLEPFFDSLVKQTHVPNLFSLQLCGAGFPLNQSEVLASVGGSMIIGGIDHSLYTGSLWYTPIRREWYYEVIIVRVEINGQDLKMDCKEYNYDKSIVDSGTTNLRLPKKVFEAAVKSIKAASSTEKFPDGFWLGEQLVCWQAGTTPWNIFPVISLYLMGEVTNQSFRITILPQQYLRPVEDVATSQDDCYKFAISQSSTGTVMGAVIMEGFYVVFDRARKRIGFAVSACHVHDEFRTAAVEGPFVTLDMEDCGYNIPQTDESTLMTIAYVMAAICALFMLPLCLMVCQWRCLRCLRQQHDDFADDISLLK
Experimental: In Vitro Enzymatic BACE FRET (Fluorescence Resonance Energy Transfer) Assay (Enzyme Assay Data in the Example Tables I and II)
The assay buffer used in this screen is 0.05 M acetate, pH 4.2, 10% DMSO final, 100 uM genapol (which is a nonionic detergent, below its Critical Micelle Concentration). […] This assay is effectively started by the addition of FRET substrate (50 nM) and the combination is incubated for one hour. The FRET assay is terminated with by addition of Tris buffer, which raises the pH to neutrality, and the fluorescence is determined. The FRET substrate is a peptide with commercially available fluorophore and quencher, on opposite sides of the BACE cleavage site. Proteolytic cleavage of the FRET substrate releases quenching of fluorescence (excitation […] and […]).

- IC50 ([1]; average IC50, HEK cells): > 15.6 µM
Compound: CC1(C)C(N)=N[C@]2(c3cc(N)ccc3F)COC[C@@H]2S1(=O)=O [Example 185d, (4aR,7aR)-3-amino-4a-(5-amino-2-fluorophenyl)-2,2-dimethyl-4a,5,7,7a-tetrahydro-2H-furo[3,4-b][1,4]thiazine 1,1-dioxide]

- IC50 ([1]; average IC50, cell assay): 0.7 µM
Compound: CC1(C)C(N)=N[C@](CF)(c2cc(Nc3nncc4cc(Cl)ccc34)ccc2F)CS1(=O)=O [Example 450, N-(3-((3S)-5-amino-3-(fluoromethyl)-6,6-dimethyl-1,1-dioxido-3,6-dihydro-2H-1,4-thiazin-3-yl)-4-fluorophenyl)-6-chloro-1-phthalazinamine]

- IC50 (Cathepsin D (Cat D)): 87.9 µM
- IC50 ([1]; average IC50, cell assay): 4.74 µM
Compound: CC1(C)C(N)=N[C@@]2(c3cc(Nc4nccc5cc(Cl)cnc45)ccc3F)C[C@H]2S1(=O)=O [Example 183, (1R,6R)-4-amino-6-(5-((3-chloro-1,7-naphthyridin-8-yl)amino)-2-fluorophenyl)-3,3-dimethyl-2-thia-5-azabicyclo[4.1.0]hept-4-ene 2,2-dioxide]

- IC50 [2]: 0.00174 µM
- IC50 (Cathepsin D (Cat D)): 112 µM
Compound: CC1(C)C(N)=N[C@](C)(c2cc(NC(=O)c3nn(C(F)F)cc3Cl)ccc2F)CS1(=O)=O [Example 106, (R)—N-(3-(5-amino-3,6,6-trimethyl-1,1-dioxido-3,6-dihydro-2H-1,4-thiazin-3-yl)-4-fluorophenyl)-4-chloro-1-(difluoromethyl)-1H-pyrazole-3-carboxamide]

- IC50 ([2]; average IC50, enzyme assay): 2.07 µM
- IC50 (Cathepsin D (Cat D)): 680 µM
Compound: COc1cnc2c(Oc3ccc(F)c([C@]4(C)CS(=O)(=O)C(C)(C)C(N)=N4)c3)nccc2c1 [Example 305, (5R)-5-(2-fluoro-5-((3-methoxy-1,7-naphthyridin-8-yl)oxy)phenyl)-2,2,5-trimethyl-5,6-dihydro-2H-1,4-thiazin-3-amine 1,1-dioxide]

- IC50 ([2]; average IC50, enzyme assay): 4.05 µM
- IC50 (Cathepsin D (Cat D)): 30 µM
Compound: C[C@@]1(c2cc(Br)ccc2F)CS(=O)(=O)C2(CCC2)C(N)=N1 [Example 113, (R)-9-amino-7-(5-bromo-2-fluorophenyl)-7-methyl-5-thia-8-azaspiro[3.5]non-8-ene 5,5-dioxide]

- IC50 (Cathepsin D (Cat D)): 184 µM
- IC50 ([1]; average IC50, HEK cell assay): 1.06 µM
Compound: CC1(C)C(N)=N[C@](C)(c2cc(OCc3ccccc3)ccc2F)CS1(=O)=O [Example 301, (5R)-5-(5-(benzyloxy)-2-fluorophenyl)-2,2,5-trimethyl-5,6-dihydro-2H-1,4-thiazin-3-amine 1,1-dioxide]

- IC50 ([1]; Aβ40, 24 h incubation): > 10 µM
Compound: COc1cnc(C(=O)Nc2ccc(F)c(C3(C(F)(F)F)CS(=O)(=O)C(C)(C)C(N)=N3)c2)cn1 (stereo in doubt) [Example 34, N-(3-((3R)-5-amino-6,6-dimethyl-1,1-dioxido-3-(trifluoromethyl)-3,6-dihydro-2H-1,4-thiazin-3-yl)-4-fluorophenyl)-5-methoxy-2-pyrazinecarboxamide]

- IC50 ([2]; average IC50, enzyme assay): 1.19 µM
- IC50 (Cathepsin D (Cat D)): 37.3 µM
Compound: C[C@@]1(c2cc(Br)ccc2F)CS(=O)(=O)C2(CC(O)C2)C(N)=N1 (stereo partly drawn) [Example 112, (R)-9-amino-7-(5-bromo-2-fluorophenyl)-2-hydroxy-7-methyl-5-thia-8-azaspiro[3.5]non-8-ene 5,5-dioxide]

- IC50 ([2]; average IC50, enzyme assay): 0.125 µM
- IC50 (Cathepsin D (Cat D)): 222 µM
Compound: CC1(C)C(N)=N[C@](C)(c2cc(Oc3ncccn3)ccc2F)CS1(=O)=O [Example 288, (5R)-5-(2-fluoro-5-(2-pyrimidinyloxy)phenyl)-2,2,5-trimethyl-5,6-dihydro-2H-1,4-thiazin-3-amine 1,1-dioxide]

- IC50 (Cathepsin D (Cat D)): 240 µM
- IC50 ([1]; Aβ40, 24 h incubation): 0.0014 µM
Compound: CC1(C)C(N)=N[C@](C)(c2cc(NC(=O)c3ccc(Cl)cn3)ccc2F)CS1(=O)=O [Example 19, N-(3-((3R)-5-amino-3,6,6-trimethyl-1,1-dioxido-3,6-dihydro-2H-1,4-thiazin-3-yl)-4-fluorophenyl)-5-chloro-2-pyridinecarboxamide]

- IC50 (Cathepsin D (Cat D)): 182 µM
- IC50 ([1]; Aβ40, 24 h incubation): 6.86 µM
Compound: COc1cc(C)ccc1Oc1ccc(F)c([C@]2(C)CS(=O)(=O)C(C)(C)C(N)=N2)c1 [Example 97, (R)-5-amino-3-(2-fluoro-5-(2-methoxy-4-methylphenoxy)phenyl)-3,6,6-trimethyl-3,6-dihydro-2H-1,4-thiazine 1,1-dioxide]

- IC50 ([1]; average IC50, cell assay): > 15.6 µM
Compound: CC1(C)C(N)=N[C@]2(c3cc(Br)ccc3F)COC[C@@H]2S1(=O)=O [Example 185b, (4aR,7aR)-3-amino-4a-(5-bromo-2-fluorophenyl)-2,2-dimethyl-4a,5,7,7a-tetrahydro-2H-furo[3,4-b][1,4]thiazine 1,1-dioxide]

- IC50 ([2]; average IC50, enzyme assay): 0.00227 µM
- IC50 (Cathepsin D (Cat D)): 81.1 µM
Compound: CC1(C)C(N)=N[C@](C)(c2cc(NCc3nn(C(F)F)cc3Cl)ccc2F)CS1(=O)=O [Example 107, (R)-5-amino-3-(5-(((4-chloro-1-(difluoromethyl)-1H-pyrazol-3-yl)methyl)amino)-2-fluorophenyl)-3,6,6-trimethyl-3,6-dihydro-2H-1,4-thiazine 1,1-dioxide]

- IC50 ([1]; average IC50, cell assay): > 15.6 µM
Compound: CC1(C)C(N)=N[C@@]2(c3cc(Br)ccc3F)COC[C@H]2S1(=O)=O [Example 185a, (4aS,7aS)-3-amino-4a-(5-bromo-2-fluorophenyl)-2,2-dimethyl-4a,5,7,7a-tetrahydro-2H-furo[3,4-b][1,4]thiazine 1,1-dioxide]

- IC50 ([1]; Aβ40, 24 h incubation): 0.007 µM
Compound: COc1cnc(C(=O)Nc2ccc(F)c([C@]3(C)CSCC(N)=N3)c2)cn1 [Example 43, (R)—N-(3-(5-amino-3-methyl-3,6-dihydro-2H-1,4-thiazin-3-yl)-4-fluorophenyl)-5-methoxypyrazine-2-carboxamide]

- IC50 ([2]; average IC50, enzyme assay): 0.00328 µM
- IC50 (Cathepsin D (Cat D)): 58.9 µM
Compound: CC1(C)C(N)=N[C@](C)(c2cc(Nc3ncnc4cc(Cl)cnc34)ccc2F)C(F)S1(=O)=O (stereo partly drawn) [Example 228, N-(3-((3R)-5-amino-2-fluoro-3,6,6-trimethyl-1,1-dioxido-3,6-dihydro-2H-1,4-thiazin-3-yl)-4-fluorophenyl)-7-chloropyrido[3,2-d]pyrimidin-4-amine]

- IC50 ([1]; average IC50, cell assay): > 15.6 µM
Compound: CC1(C)C(N)=NC2(c3cc(Br)ccc3F)COCC2S1(=O)=O (stereo not drawn) [Example 185, 3-amino-4a-(5-bromo-2-fluorophenyl)-2,2-dimethyl-4a,5,7,7a-tetrahydro-2H-furo[3,4-b][1,4]thiazine 1,1-dioxide]

- IC50 ([1]; Aβ40, 24 h incubation): 0.0067 µM
Compound: COc1cnc2c(Nc3cnc(F)c([C@]4(C)CS(=O)(=O)C(C)(C)C(N)=N4)c3)nccc2c1 [Example 66, N-(5-((3R)-5-amino-3,6,6-trimethyl-1,1-dioxido-3,6-dihydro-2H-1,4-thiazin-3-yl)-6-fluoro-3-pyridinyl)-3-methoxy-1,7-naphthyridin-8-amine]

- IC50 (Cathepsin D (Cat D)): > 400 µM
- IC50 ([1]; Aβ40, 24 h incubation): 0.0022 µM
Compound: COc1cnc(C(=O)Nc2ccc(F)c([C@]3(C)CS(=O)(=O)C(C)(C)C(N)=N3)c2)cn1 [Example 17, N-(3-((3R)-5-amino-3,6,6-trimethyl-1,1-dioxido-3,6-dihydro-2H-1,4-thiazin-3-yl)-4-fluorophenyl)-5-methoxy-2-pyrazinecarboxamide]

- IC50 ([1]; average IC50, HEK cells): > 15.6 µM
Compound: CC1(C)C(N)=N[C@@]2(c3cc(N)ccc3F)COC[C@H]2S1(=O)=O [Example 185c, (4aS,7aS)-3-amino-4a-(5-amino-2-fluorophenyl)-2,2-dimethyl-4a,5,7,7a-tetrahydro-2H-furo[3,4-b][1,4]thiazine 1,1-dioxide]
